Patent US20040019060A1, “Sigma receptor ligands and their medical uses” (priority 2000, published 2004)
pIC50: −log10 of the molar value. Structures can show the parent of a compound that is named as a salt. Where two headings read alike, the source gives them in different places.

Experiments:
[1] = tested on: Human adult dermal microvascular endothelial cells; experiment: MTS cell viability/proliferation assay, microvascular endothelial cells; details: Homo sapiens, Endothelial cell
[2] = tested on: human vascular endothelial cells (HUVEC); experiment: Proliferation assay in HUVEC (phosphatase activity); type: cell-based; details: 168 h, read-out: IC50 (dose required to inhibit proliferation to 50% of control), FIG. 2b, assay on day 7
Protocol: (§1) HUVECS (human umbilical vein endothelial cells) obtained from TCS Biologicals were grown in TCS Biologicals Large Vessel Endothelial Cell Basal Medium (ZHM-2951) with supplement (ZHS-8945). This contains heparin, hydrocortisone, human EGF, human bFGF (concentrations not disclosed by the Company) with added 2% FCS, pH 7.4.
(§2) The cells were seeded at 2×10^4 ml in 96 well microtitre plates on day 0, and sigma ligands were added in fresh medium on day 1. […] PCS at the concentrations indicated was present throughout the assay. Each concentration of drug was assayed in triplicate, and the vehicle concentration was kept constant.
Viable cells present at the end of the assay were estimated by determining phosphatase activity as follows: 100Xl of paranitrophenylphosphate (Sigma) at 3 mg/ml in phosphate buffer pH 5.5 containing 0.1% Triton X100 was added to wells and incubated for 2hr at 37° C. The reaction was stopped with 1N NaOH. Released paranitrophenol, indicative of attached cell number, was measured by reading the absorbance at 405 nm in a Titertek multiscan. “Background” counts (which were very low) were subtracted, and the survival in drug treated wells compared with that of control wells. The 100% value is the mean absorbance of control wells treated with vehicle alone; the 0% value is that of wells containing medium only.

sponge angiogenesis = experiment: Rat sponge angiogenesis model (125I albumin vascular volume); type: in vivo, CBH/cbi rats
Protocol: In order to study neoangiogenesis in the absence of tumours, sterile polyether sponges were implanted into animals. This technique, developed in Cambridge, has been widely used to study angiogenesis. We have employed a triple radiotracer technique to study different aspects of the angiogenic process.
CBH/cbi rats were implanted s.c. with sterile 13 mm diameter sponges as above. They were treated i.p. with Rimcazole (30 mg/kg/day) for 14 days from day 0. Five minutes before termination, they were injected with ^125I labelled rat albumin (a macromolecule which, in the short term remains intravascular). The amount of radioiodine in the sponges is an index of vascular volume.

[3] = tested on: Human mammary epithelial cells; experiment: MTS cell viability/proliferation assay, mammary epithelial cells; type: cell-based; details: 10 micromolar, up to 48 hours, FIG. 9
Excerpt: (Tissue in all cases was from healthy donors). […] Primary cell types included:
Human mammary epithelial cells (catalogue number CC-2551; stain positive for cytokeratins 14, 18 and 19).
Cell density was checked microscopically at time zero.

[4] = tested on: Human endothelial cells co-cultured with human "feeder" fibroblasts; experiment: In vitro angiogenesis assay (pseudocapillary formation, anti-CD31 staining); type: cell-based
Protocol: Human endothelial cells co-cultured with human “feeder” fibroblasts on a fibrin matrix in 24 well plates were incubated with ligands at different concentrations. The ligands were added on days 0, 4, 7 and 9 and the experiment terminated on day 11. On each plate, 2 wells served as untreated controls, and 2 received suramin at […] as a standard angiogenesis inhibitor. Each concentration of ligand was assayed in triplicate. On day 11, the wells were washed, and the endothelial cells fixed and stained with anti-CD31 (PECAM-1) antibody and visualised with alkaline phosphatase conjugated second antibody. The cultures were scanned for image analysis and quantitation using a DataCell image analysis system and ImagePro software. Angiogenesis was expressed as the area and/or perimeter of “pseudocapillaries” formed in the gel by the endothelial cells.

endothelial cells = experiment: Endothelial cell proliferation assay (cell phosphatase activity); type: cell-based, human; details: Homo sapiens, Endothelial cell
Protocol: as §1
(§3) HMEC-1 (immortalised human microvascular endothelial cells) obtained from Dr Colin Porter, Chester Beatty Laboratories were grown in TCS Biologicals Microvascular Endothelial Cell Basal Medium (ZHM-2946) with supplement (ZHS-8947). This contains heparin, hydrocortisone, human EGF, human bFGF, dibutyryl cyclic AMP (concentrations not disclosed by the Company) with added 5% FCS, pH 7.4.
as §3, with “HDMECS (human dermal” for “HMEC-1 (immortalised human”, “TCS Biologicals” for “Dr Colin Porter, Chester Beatty Laboratories”
as §2
Viable cells present at the end of the assay were estimated by determining phosphatase activity as follows: 100Xl of paranitrophenylphosphate (Sigma) at 3 mg/ml in phosphate buffer pH 5.5 containing 0.1% Triton X100 was added to wells and incubated for 2hr at 37° C. The reaction was stopped with 1N NaOH. Released paranitrophenol, indicative of attached cell number, was measured by reading the absorbance at 405 nm in a Titertek multiscan. […] The 100% value is the mean absorbance of control wells treated with vehicle alone; the 0% value is that of wells containing medium only.

C[C@@H]1CN(CCCn2c3ccccc3c3ccccc32)C[C@H](C)N1 [Rimcazole, cis-9-[3,5-dimethyl-1-piperazinyl) propyl]carbazole dihydrochloride]
cytotoxicity at 10 µM ([1]; read-out: Reduction in viability): ~80% | cytotoxicity at 10 µM ([1]; read-out: Reduction in viable cell numbers compared to baseline values): 60 to 80% | pIC50 [2]: > 5.30 | Vascular volume of normal organs (liver and kidney) (sponge angiogenesis; 30 mg/kg/day for 14 days): unaffected | Neoangiogenesis in sponges (vascular volume, radiolabelled albumin) (sponge angiogenesis; 30 mg/kg/day for 14 days after implantation, FIG. 7b): reduced | Survival and proliferation (MTS) [3]: continued to proliferate vigorously | Inhibition of in vitro angiogenesis ([4]; 4 μM, FIG. 5c): complete inhibition of angiogenesis | Inhibition of pseudocapillary formation (in vitro angiogenesis) ([4]; FIG. 4, 5a, 5b angiogenesis area): very effective in inhibiting | activity at 4 µM (endothelial cells; 4 μM Rimcazole, read-out: Endothelial cell proliferation, % of control cells): < 50% | pIC50 (endothelial cells; concentration of drug required to inhibit survival and/or proliferation by 50%, read-out: Antagonists: IC50): 5.30
